Tested on: MV-4-11 cells
Assay: Gene expression microarray analysis (Affymetrix PrimeView) and GSEA
Type: cell-based, human
Parameters: RFU PODN (11730768_x_at) / Fold change /veh PODN (11730768_x_at) / RFU LINC00158 (11744669_a_at) / Fold change /veh LINC00158 (11744669_a_at) / RFU DUSP10 (11751237_a_at) / Fold change /veh DUSP10 (11751237_a_at) / RFU ID3 (11757404_x_at) / Fold change /veh ID3 (11757404_x_at) / RFU PLEKHG5 (11737974_s_at) / Fold change /veh PLEKHG5 (11737974_s_at) / RFU LRRC4B (11730491_at) / Fold change /veh LRRC4B (11730491_at) / RFU GIMAP4 (11747438_a_at) / Fold change /veh GIMAP4 (11747438_a_at) / RFU KRT8 (11758183_x_at) / Fold change /veh KRT8 (11758183_x_at) / RFU CNN1 (11734310_a_at) / Fold change /veh CNN1 (11734310_a_at) / RFU VPS37D (11726825_at) / Fold change /veh VPS37D (11726825_at) / RFU C10orf10 (11716522_x_at) / Fold change /veh C10orf10 (11716522_x_at) / RFU KIR2DL2 /// KIR2DL4 /// KIR2DL5A /// KIR2DL5B /// KIR2DS1 /// KIR2DS2 /// KIR2DS3 /// KIR2DS4 /// KIR3DL3 /// KIR3DL3 /// KIR3DS1 (11738374_at) / Fold change /veh KIR2DL2 /// KIR2DL4 /// KIR2DL5A /// KIR2DL5B /// KIR2DS1 /// KIR2DS2 /// KIR2DS3 /// KIR2DS4 /// KIR3DL3 /// KIR3DL3 /// KIR3DS1 (11738374_at) / RFU C1QL1 (11718748_at) / Fold change /veh C1QL1 (11718748_at) / RFU TMPRSS4 (11747572_a_at) / Fold change /veh TMPRSS4 (11747572_a_at) / RFU HAMP (11756126_x_at) / Fold change /veh HAMP (11756126_x_at) / RFU RNFT2 (11725882_a_at) / Fold change /veh RNFT2 (11725882_a_at) / RFU NR4A2 (11747474_a_at) / Fold change /veh NR4A2 (11747474_a_at) / RFU ABCC12 (11746883_a_at) / Fold change /veh ABCC12 (11746883_a_at) / RFU TMEM136 (11760407_x_at) / Fold change /veh TMEM136 (11760407_x_at) / RFU CLDN22 /// WWC2 (11732394_at) / Fold change /veh CLDN22 /// WWC2 (11732394_at) / RFU HLA-DPB1 (11760878_x_at) / Fold change /veh HLA-DPB1 (11760878_x_at) / RFU SPINT1 (11716480_a_at) / Fold change /veh SPINT1 (11716480_a_at) / RFU GAP43 (11754022_s_at) / Fold change /veh GAP43 (11754022_s_at) / RFU A4GNT (11735810_at) / Fold change /veh A4GNT (11735810_at) / RFU PRB3 (11715151_x_at) / Fold change /veh PRB3 (11715151_x_at) / RFU TUBB4B (11761932_at) / Fold change /veh TUBB4B (11761932_at) / RFU CAPN14 (11732068_a_at) / Fold change /veh CAPN14 (11732068_a_at) / RFU TMCC2 (11721928_a_at) / Fold change /veh TMCC2 (11721928_a_at) / RFU IRGQ (11745062_a_at) / Fold change /veh IRGQ (11745062_a_at) / RFU FAM174B (11720279_a_at) / Fold change /veh FAM174B (11720279_a_at) / RFU TMPRSS4 (11748680_a_at) / Fold change /veh TMPRSS4 (11748680_a_at) / RFU FAM212B (11763350_a_at) / Fold change /veh FAM212B (11763350_a_at) / RFU PLEKHG5 (11743358_a_at) / Fold change /veh PLEKHG5 (11743358_a_at) / RFU ZSCAN30 (11745921_a_at) / Fold change /veh ZSCAN30 (11745921_a_at) / RFU CMKLR1 (11741424_a_at) / Fold change /veh CMKLR1 (11741424_a_at) / RFU LOC101060620 /// MAPK8IP1 (11723275_at) / Fold change /veh LOC101060620 /// MAPK8IP1 (11723275_at) / RFU SPTSSB (11747773_x_at) / Fold change /veh SPTSSB (11747773_x_at) / RFU PRSS12 (11739890_at) / Fold change /veh PRSS12 (11739890_at) / RFU BIN1 (11741810_x_at) / Fold change /veh BIN1 (11741810_x_at) / RFU WNT11 (11732464_a_at) / Fold change /veh WNT11 (11732464_a_at) / RFU C10orf10 (11716521_a_at) / Fold change /veh C10orf10 (11716521_a_at) / RFU C5orf56 (11738089_at) / Fold change /veh C5orf56 (11738089_at) / RFU CYB561 (11721691_x_at) / Fold change /veh CYB561 (11721691_x_at) / RFU ANKRD19P (11752326_a_at) / Fold change /veh ANKRD19P (11752326_a_at) / RFU OR2T12 /// OR2T33 /// OR2T8 (11738714_s_at) / Fold change /veh OR2T12 /// OR2T33 /// OR2T8 (11738714_s_at) / RFU VCAN (11748164_a_at) / Fold change /veh VCAN (11748164_a_at) / RFU JSRP1 (11732532_at) / Fold change /veh JSRP1 (11732532_at) / RFU KRTAP10-11 (11738290_x_at) / Fold change /veh KRTAP10-11 (11738290_x_at) / RFU MYO3A (11730013_a_at) / Fold change /veh MYO3A (11730013_a_at) / RFU EBF3 (11725865_a_at) / Fold change /veh EBF3 (11725865_a_at) / RFU CAMK2N1 (11719241_x_at) / Fold change /veh CAMK2N1 (11719241_x_at) / RFU C5orf56 (11738088_a_at) / Fold change /veh C5orf56 (11738088_a_at) / RFU OLFML3 (11715873_a_at) / Fold change /veh OLFML3 (11715873_a_at) / RFU LOC100653217 /// NTM (11731650_a_at) / Fold change /veh LOC100653217 /// NTM (11731650_a_at) / RFU MAPK11 (11762145_a_at) / Fold change /veh MAPK11 (11762145_a_at) / RFU FIZ1 (11724087_x_at) / Fold change /veh FIZ1 (11724087_x_at) / RFU OASL (11726364_x_at) / Fold change /veh OASL (11726364_x_at) / RFU SOX15 (11748057_x_at) / Fold change /veh SOX15 (11748057_x_at) / RFU CD79A (11719716_a_at) / Fold change /veh CD79A (11719716_a_at) / RFU HIST1H1D (11736915_at) / Fold change /veh HIST1H1D (11736915_at) / RFU CASKIN2 (11723855_a_at) / Fold change /veh CASKIN2 (11723855_a_at) / RFU LOC730098 (11760151_x_at) / Fold change /veh LOC730098 (11760151_x_at) / RFU OR4N2 (11742367_at) / Fold change /veh OR4N2 (11742367_at) / RFU PRRT2 (11749266_a_at) / Fold change /veh PRRT2 (11749266_a_at) / RFU SNX32 (11753110_a_at) / Fold change /veh SNX32 (11753110_a_at) / RFU CDHR5 (11726645_a_at) / Fold change /veh CDHR5 (11726645_a_at) / RFU RCAN1 (11760418_a_at) / Fold change /veh RCAN1 (11760418_a_at) / RFU FAM167A (11723789_a_at) / Fold change /veh FAM167A (11723789_a_at) / RFU FAM26E (11764081_at) / Fold change /veh FAM26E (11764081_at) / RFU ISYNA1 (11749810_s_at) / Fold change /veh ISYNA1 (11749810_s_at) / RFU ACY1 (11761880_at) / Fold change /veh ACY1 (11761880_at) / RFU 11764098_at / Fold change /veh 11764098_at / RFU SAMD14 (11745864_x_at) / Fold change /veh SAMD14 (11745864_x_at) / RFU NPB (11741838_a_at) / Fold change /veh NPB (11741838_a_at) / RFU TMPRSS6 (11731388_a_at) / Fold change /veh TMPRSS6 (11731388_a_at) / RFU KRTAP10-2 (11738614_at) / Fold change /veh KRTAP10-2 (11738614_at) / RFU ARHGAP8 /// PRR5-ARHGAP8 (11727945_x_at) / Fold change /veh ARHGAP8 /// PRR5-ARHGAP8 (11727945_x_at) / RFU KRTAP5-7 /// NADSYN1 (11734609_at) / Fold change /veh KRTAP5-7 /// NADSYN1 (11734609_at) / RFU RASL12 (11751679_a_at) / Fold change /veh RASL12 (11751679_a_at) / RFU CDKN2B (11736163_a_at) / Fold change /veh CDKN2B (11736163_a_at) / RFU PRF1 (11729649_at) / Fold change /veh PRF1 (11729649_at) / RFU, ZNF638 /// ZNF638-IT1 / Fold change vs veh, ZNF638 /// ZNF638-IT1 / RFU, PANK3 / Fold change vs veh, PANK3 / RFU, SH3YL1 / Fold change vs veh, SH3YL1 / RFU, ZEB2 / Fold change vs veh, ZEB2 / RFU, NRIP1 / Fold change vs veh, NRIP1 / RFU, PTTG1IP / Fold change vs veh, PTTG1IP / RFU, CAPN2 / Fold change vs veh, CAPN2 / RFU, MED14 / Fold change vs veh, MED14 / RFU, SNORA58 / Fold change vs veh, SNORA58 / RFU, C1orf63 / Fold change vs veh, C1orf63 / RFU, LRRFIP1 / Fold change vs veh, LRRFIP1 / RFU, NDUFAF7 / Fold change vs veh, NDUFAF7 / RFU, SLC12A2 / Fold change vs veh, SLC12A2 / RFU, IBTK / Fold change vs veh, IBTK / RFU, ESF1 / Fold change vs veh, ESF1 / Fold change vs veh, TMEM50B / RFU, TAOK1 / Fold change vs veh, TAOK1 / RFU, ACBD3 / Fold change vs veh, ACBD3 / RFU, TMA16 / Fold change vs veh, TMA16 / RFU, RWDD3 / Fold change vs veh, RWDD3 / RFU, BCAT1 / Fold change vs veh, BCAT1 / RFU, EDEM3 / Fold change vs veh, EDEM3 / RFU, TMEM33 / Fold change vs veh, TMEM33 / RFU, WDR75 / Fold change vs veh, WDR75 / RFU, AHCTF1 / Fold change vs veh, AHCTF1 / RFU, TFRC / Fold change vs veh, TFRC / RFU, ZDHHC17 / Fold change vs veh, ZDHHC17 / RFU, NOM1 / Fold change vs veh, NOM1 / RFU, ARL8B / Fold change vs veh, ARL8B / RFU, ZBTB11 / Fold change vs veh, ZBTB11 / RFU, TAMM41 / Fold change vs veh, TAMM41 / RFU, KIAA1704 /// LOC100996395 / Fold change vs veh, KIAA1704 /// LOC100996395 / RFU, ING1 / Fold change vs veh, ING1 / RFU, TRMT61B / Fold change vs veh, TRMT61B / RFU, FUBP3 / Fold change vs veh, FUBP3 / RFU, TP53 / Fold change vs veh, TP53 / RFU, TNKS2 / Fold change vs veh, TNKS2 / RFU, ZFP14 / Fold change vs veh, ZFP14 / RFU, ACTR2 / Fold change vs veh, ACTR2 / RFU, PPP3R1 / Fold change vs veh, PPP3R1 / RFU, PIK3R1 / Fold change vs veh, PIK3R1 / RFU, HNRNPA1 / Fold change vs veh, HNRNPA1 / RFU, RNF170 / Fold change vs veh, RNF170 / RFU, ZNF28 / Fold change vs veh, ZNF28 / RFU, RNGTT / Fold change vs veh, RNGTT / RFU, OGT / Fold change vs veh, OGT / RFU, BRD1 / Fold change vs veh, BRD1 / RFU, MARS / Fold change vs veh, MARS / RFU, ZNF655 / Fold change vs veh, ZNF655 / RFU, FAHD1 / Fold change vs veh, FAHD1 / RFU, BDP1 / Fold change vs veh, BDP1 / RFU, LRRCC1 / Fold change vs veh, LRRCC1 / RFU, ARID1A / Fold change vs veh, ARID1A / RFU, ZNF146 / Fold change vs veh, ZNF146 / RFU, ZNF330 / Fold change vs veh, ZNF330 / RFU, GPN3 / Fold change vs veh, GPN3 / RFU, C9orf123 / Fold change vs veh, C9orf123 / RFU, N4BP2L2 / Fold change vs veh, N4BP2L2 / RFU, ARFIP1 / Fold change vs veh, ARFIP1 / RFU, FAM179B / Fold change vs veh, FAM179B / RFU, BCL10 / Fold change vs veh, BCL10 / RFU, UHRF1BP1L / Fold change vs veh, UHRF1BP1L / RFU, BET1 / Fold change vs veh, BET1 / RFU, CNOT2 / Fold change vs veh, CNOT2 / RFU, ZNF268 / Fold change vs veh, ZNF268 / Fold change vs veh, ZNF507 / RFU, DGCR2 / Fold change vs veh, DGCR2 / RFU, WDSUB1 / Fold change vs veh, WDSUB1 / Fold change vs veh, HSP90B1 /// MIR3652 / RFU, ADSS / Fold change vs veh, ADSS / RFU, GK / Fold change vs veh, GK / RFU, ZNF148 / Fold change vs veh, ZNF148 / RFU, TAF9 / Fold change vs veh, TAF9 / RFU, SLC1A5 / Fold change vs veh, SLC1A5 / RFU, SLMO2 / Fold change vs veh, SLMO2 / RFU, ABCC4 / Fold change vs veh, ABCC4 / RFU, LOC101060439 /// RAP1B / Fold change vs veh, LOC101060439 /// RAP1B / RFU, RFX7 / Fold change vs veh, RFX7 / RFU, GTPBP10 / Fold change vs veh, GTPBP10 / RFU, CNEP1R1 / Fold change vs veh, CNEP1R1 / RFU, BIVM-ERCC5 /// ERCC5 / Fold change vs veh, BIVM-ERCC5 /// ERCC5 / RFU, ILF3 / Fold change vs veh, ILF3 / RFU 11762660_at / Fold change /veh 11762660_at / RFU VCAN (11757783_s_at) / Fold change /veh VCAN (11757783_s_at) / RFU DDX43 (11728927_at) / Fold change /veh DDX43 (11728927_at) / RFU KRT8 (11758188_x_at) / Fold change /veh KRT8 (11758188_x_at) / RFU NKD1 (11759106_at) / Fold change /veh NKD1 (11759106_at) / RFU SRD5A1 (11742802_a_at) / Fold change /veh SRD5A1 (11742802_a_at) / RFU TPSAB1 /// TPSB2 (11721975_s_at) / Fold change /veh TPSAB1 /// TPSB2 (11721975_s_at) / RFU GSTM3 (11746129_a_at) / Fold change /veh GSTM3 (11746129_a_at) / RFU IL23R (11737362_x_at) / Fold change /veh IL23R (11737362_x_at) / RFU TMEM51 (11727254_a_at) / Fold change /veh TMEM51 (11727254_a_at) / RFU PIWIL2 (11732686_x_at) / Fold change /veh PIWIL2 (11732686_x_at) / RFU ORM1 (11744905_x_at) / Fold change /veh ORM1 (11744905_x_at) / RFU CCDC152 (11743942_at) / Fold change /veh CCDC152 (11743942_at) / RFU ECM1 (11717891_a_at) / Fold change /veh ECM1 (11717891_a_at) / RFU IL23R (11748794_a_at) / Fold change /veh IL23R (11748794_a_at) / RFU TNFAIP8L3 (11732012_x_at) / Fold change /veh TNFAIP8L3 (11732012_x_at) / RFU MBOAT4 (11741988_at) / Fold change /veh MBOAT4 (11741988_at) / RFU 11764193_at / Fold change /veh 11764193_at / RFU TMEM53 (11763286_at) / Fold change /veh TMEM53 (11763286_at) / RFU MAGEB2 (11727129_at) / Fold change /veh MAGEB2 (11727129_at) / RFU TMEM200A (11744735_a_at) / Fold change /veh TMEM200A (11744735_a_at) / RFU CCDC152 (11751479_a_at) / Fold change /veh CCDC152 (11751479_a_at) / RFU FAM211A (11726209_a_at) / Fold change /veh FAM211A (11726209_a_at) / RFU RGS16 (11746705_a_at) / Fold change /veh RGS16 (11746705_a_at) / RFU VCAN (11755009_s_at) / Fold change /veh VCAN (11755009_s_at) / RFU RHOB (11743442_s_at) / Fold change /veh RHOB (11743442_s_at) / RFU RGS16 (11720943_a_at) / Fold change /veh RGS16 (11720943_a_at) / RFU RGS16 (11720944_at) / Fold change /veh RGS16 (11720944_at) / RFU, VPS4B / Fold change vs veh, VPS4B / RFU, CREB1 / Fold change vs veh, CREB1 / RFU, DNAJC13 / Fold change vs veh, DNAJC13 / RFU, GNAQ / Fold change vs veh, GNAQ / RFU, CDK5R1 / Fold change vs veh, CDK5R1 / RFU, ZRANB3 / Fold change vs veh, ZRANB3 / RFU, CUL4A / Fold change vs veh, CUL4A / RFU, CCNY / Fold change vs veh, CCNY / RFU, UFL1 / Fold change vs veh, UFL1 / RFU, COG3 / Fold change vs veh, COG3 / RFU, DIAPH2 / Fold change vs veh, DIAPH2 / RFU, SKA2 / Fold change vs veh, SKA2 / RFU, AFF3 / Fold change vs veh, AFF3 / RFU, LMF1 / Fold change vs veh, LMF1 / RFU, IPO11 / Fold change vs veh, IPO11 / RFU, DFFB / Fold change vs veh, DFFB / RFU, FOXP1 / Fold change vs veh, FOXP1 / RFU, CARD8 / Fold change vs veh, CARD8 / RFU, STRN3 / Fold change vs veh, STRN3 / RFU, ADK / Fold change vs veh, ADK / RFU, RASSF2 / Fold change vs veh, RASSF2 / RFU, WIPF1 / Fold change vs veh, WIPF1 / RFU, LARP1B / Fold change vs veh, LARP1B / RFU, RASA1 / Fold change vs veh, RASA1 / RFU, RB1 / Fold change vs veh, RB1 / RFU, PPFIA1 / Fold change vs veh, PPFIA1 / RFU, MAT2A / Fold change vs veh, MAT2A / RFU, CCT5 / Fold change vs veh, CCT5 / RFU, WDR92 / Fold change vs veh, WDR92 / RFU, CUX1 / Fold change vs veh, CUX1 / RFU, TTC7A / Fold change vs veh, TTC7A / RFU, TMEM135 / Fold change vs veh, TMEM135 / RFU, DEPTOR / Fold change vs veh, DEPTOR / RFU, CPM / Fold change vs veh, CPM / RFU, DNAJB6 / Fold change vs veh, DNAJB6 / RFU, CACNA2D3 / Fold change vs veh, CACNA2D3 / RFU, DTX4 / Fold change vs veh, DTX4 / RFU, TFCP2 / Fold change vs veh, TFCP2 / RFU, GMCL1 /// GMCL1P1 / Fold change vs veh, GMCL1 /// GMCL1P1 / RFU, AEBP2 / Fold change vs veh, AEBP2 / RFU, SNHG1 /// SNORD22 /// SNORD25 /// SNORD26 /// SNORD27 /// SNORD28 /// SNORD29 /// SNORD31 / Fold change vs veh, SNHG1 /// SNORD22 /// SNORD25 /// SNORD26 /// SNORD27 /// SNORD28 /// SNORD29 /// SNORD31 / Fold change (Aza/veh), C12orf56 (ProbeSet 11735607_a_at) / Fold change (ACY-1035/veh), C12orf56 (ProbeSet 11735607_a_at) / Fold change (Aza/veh), FGFR1OP (ProbeSet 11751329_s_at) / Fold change (ACY-1035/veh), FGFR1OP (ProbeSet 11751329_s_at) / Fold change (Aza/veh), VPS36 (ProbeSet 11739960_a_at) / Fold change (ACY-1035/veh), VPS36 (ProbeSet 11739960_a_at) / RFU SYPL1 (11715823_x_at) / Fold change /veh SYPL1 (11715823_x_at) / RFU IGFBP7 (11715501_s_at) / Fold change /veh IGFBP7 (11715501_s_at) / RFU REEP3 (11722064_at) / Fold change /veh REEP3 (11722064_at) / RFU IGLL1 (11728026_x_at) / Fold change /veh IGLL1 (11728026_x_at): dose or concentration left out as unconfirmed
Details: ProbeSet 11729173_a_at; LIST D

## Nc1ncn([C@@H]2O[C@H](CO)[C@@H](O)[C@H]2O)c(=O)n1 [azacitidine]
  Fold change vs veh, SKA2: 0.81

Source: PMC5218480 (PLoS ONE, 2017)
